For this experiment, the target named is T1, TaFAR3 (Triticum aestivum, UniProt A0A142IX60).
T1 construct: gene FAR3; full-length ORF, 497 residues (1,494 bp), untagged expression from pYES2/pYES3 in Saccharomyces cerevisiae; gene on chromosome 4BS
T1 sequence (A0A142IX60 1-497): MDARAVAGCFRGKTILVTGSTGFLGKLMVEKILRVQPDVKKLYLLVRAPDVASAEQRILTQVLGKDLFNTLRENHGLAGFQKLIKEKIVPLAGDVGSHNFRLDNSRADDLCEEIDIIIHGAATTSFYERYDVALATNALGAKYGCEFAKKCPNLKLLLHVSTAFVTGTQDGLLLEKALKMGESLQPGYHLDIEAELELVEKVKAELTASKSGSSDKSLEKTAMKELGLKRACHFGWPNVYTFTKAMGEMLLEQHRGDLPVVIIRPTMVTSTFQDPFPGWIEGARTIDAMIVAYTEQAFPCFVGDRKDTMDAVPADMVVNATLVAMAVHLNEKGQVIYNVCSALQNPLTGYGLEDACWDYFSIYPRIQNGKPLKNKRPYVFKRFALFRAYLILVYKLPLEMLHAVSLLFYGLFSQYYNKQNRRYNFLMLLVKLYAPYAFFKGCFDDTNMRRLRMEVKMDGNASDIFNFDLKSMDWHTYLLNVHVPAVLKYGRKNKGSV
Description: heterologous expression in yeast, lipid extraction, TLC and GC-MS. In kind it is cell-based. The settings on record: yeast mutant INVSur4# (Sur4 F262A/K266L); endogenous acyl-CoA substrates; none in empty-vector control.

`CCCCCCCCCCCCCCCCCCCCCCCCCCCCO` [C28:0-OH]: the “heterologous expression in yeast, lipid extraction, TLC and GC-MS” value was “In the case of TaFAR3, the highest production of primary alcohol was C28:0-OH”.
